Results as given in patent US20190008870A1, “COMPOSITIONS AND METHODS FOR LIPID METABOLISM DISORDER” (JANSFAT BIOTECHNOLOGY CO., LTD., priority 2016, published 2019).

Experiments:
[1] = system: HMG CoA reductase; experiment: HFD-induced HMG CoA reductase expression in liver; assay type: in vivo, mice
Experimental: (§1) In the experiment, C57BL/6J male mice (21-22 g), after fasting, were fed an HFD as a model of hyperlipidemia for 8 weeks. During the 2 month experiments, mice fasted for one night before the experiment was changed from a standard diet (STD) to an HFD and then the mice were randomly divided into 13 groups, including a protection group, 2 control and 10 treatment groups. Six mice were used in each group. […] Liver from the protection group supplemented with KMUP-1 HCl (1 mg/kg/day) were used to determine the HMG CoA reductase expression. Each group of mice had free access to drinking water from week 1 to week 14. Tap water was used to normalize mineral nutrition.
(§2) For the expression of SR-B1, HMGR, PPARγ and ROCK II, isolated liver tissues were cut into small chips and placed into an extraction buffer (Tris 10 mM, pH 7.0, NaCl 140 mM, PMSF 2 mM, DTT 5 mM, NP-40 0.5%, pepstatin A 0.05 mM and leupeptin 0.2 mM) for hepatic protein extraction, and centrifuged at 20,000×g for 30 minutes. The obtained protein extract was boiled to a ratio of 4:1 with a sample buffer (Tris 100 mM, pH 6.8, glycerol 20%, SDS 4% and bromophenol blue 0.2%). Electrophoresis was performed using 10% SDS-polyacrylamide gel (1 hour, 100 V, 40 mA, 20 μg protein per lane).
(§3) Separated proteins, after 3 repeated centrifugations to discard up-layer tissue lipid in purity, were transferred to PVDF membranes treated with 5% fat-free milk powder to block the nonspecific IgGs (90 minutes, 100 V) and incubated for 1 hour with specific protein antibody. The blot was then incubated with anti-mouse or anti-goat IgG linked to alkaline phosphatase (1:1000) for 1 hour.

[2] = system: PPARγ; experiment: PPARγ expression in HepG2 cells; assay type: cell-based; settings: for PPARγ expression: 10^−5 M, 24 hours, Control 100, Vehicle 260
Experimental: (§4) The HepG2 hepatoma cell line was purchased from the American Type Culture Collection (ATCC, Manassas, Va., U.S.A.). Cells were cultured in Dulbecco's Modified Eagle's Medium (DMEM). […] Then the targeted drugs solution was incubated with the cells for 24 hours, followed by protein extraction. […] HepG2 cells were treated with various concentrations of targeted drugs for 24 hours. Reactions were terminated by washing twice with cold PBS, and the cells were then harvested. Proteins in the whole-cell lysate were homogenized in an ice-cold lysis buffer and a protease inhibitor (Sigma-Aldrich, St. Louis, Mo., U.S.A.). The homogenate was centrifuged at 90,000×g for 15 minutes at 4° C., and supernatant was recovered as the total cellular protein. Cytosolic and membrane fractions of HepG2 cells were prepared using a CNM (Cytosol Nuclear Membrane) compartmental protein extraction kit (BioChain Institute Inc., Hayward, Calif., U.S.A.) according to the manufacturer's instructions. All of the fractionated protein solutions were stored at −80° C. until analysis. To measure the expression levels of proteins by drugs, the total cell protein was extracted after incubation with treatments for 24 hours and then Western blotting analysis was performed as described previously.

[3] = system: ROCK II; experiment: HFD-induced ROCK II expression in liver; assay type: in vivo, mice; settings: for ROCK II: HFD mice, CTL 100
Experimental: as §1, §2, §3

[4] = system: HMG CoA reductase; experiment: HMG CoA reductase expression in HepG2 cells (Western blotting); assay type: cell-based; settings: for HMGR (%): 24 hours, CTL 100; for HMG CoA expression: Mevalonate (100 μM) + drug (10^−5 M), Control 100
Experimental: The HepG2 hepatoma cell line was purchased from the American Type Culture Collection (ATCC, Manassas, Va., U.S.A.). Cells were cultured in Dulbecco's Modified Eagle's Medium (DMEM). The culture media was supplemented with 5% heat-inactivated FBS, penicillin (100 U/mL) and streptomycin (100 μg/mL). Cells were grown in a humidified atmosphere containing 5% CO2 at 37° C., in which the oxygen tension in the incubator was held at 140 mmHg (20% O2, v/v; normoxic conditions). […] Then the targeted drugs solution was incubated with the cells for 24 hours, followed by protein extraction. The targeted drugs were added to the […].
HepG2 cells were treated with various concentrations of targeted drugs for 24 hours. Reactions were terminated by washing twice with cold PBS, and the cells were then harvested. Proteins in the whole-cell lysate were homogenized in an ice-cold lysis buffer and a protease inhibitor (Sigma-Aldrich, St. Louis, Mo., U.S.A.). The homogenate was centrifuged at 90,000×g for 15 minutes at 4° C., and supernatant was recovered as the total cellular protein. Cytosolic and membrane fractions of HepG2 cells were prepared using a CNM (Cytosol Nuclear Membrane) compartmental protein extraction kit (BioChain Institute Inc., Hayward, Calif., U.S.A.) according to the manufacturer's instructions. All of the fractionated protein solutions were stored at −80° C. until analysis. To measure the expression levels of proteins by drugs, the total cell protein was extracted after incubation with treatments for 24 hours and then Western blotting analysis was performed as described previously.

[5] = system: ABCA1; experiment: ABCA1 expression in HepG2 cells; assay type: cell-based; settings: for ABCA1 expression: 10^−5 M, 24 hours, Control 100, Vehicle 110
Experimental: as §4

[6] = system: mice fed with HFD; experiment: Serum and liver lipid levels of mice fed with HFD; assay type: in vivo
Experimental: During the 2 month experiments, mice fasted for one night before the experiment was changed from a standard diet (STD) to an HFD and then the mice were randomly divided into 13 groups, including a protection group, 2 control and 10 treatment groups. Six mice were used in each group. […] Liver from the protection group supplemented with KMUP-1 HCl (1 mg/kg/day) were used to determine the HMG CoA reductase expression. Each group of mice had free access to drinking water from week 1 to week 14. Tap water was used to normalize mineral nutrition.
Within 2 months, the 3 day food intake average for each animal was measured. The weight gain and plasma lipid levels of each group were determined and compared to the non-treatment control group. […] Agents used in the assays were obtained from Merck & Co. (Kenilworth, N.J., U.S.A.). Triglyceride (TG), total cholesterol, HDL cholesterol and LDL cholesterol in mouse serum were measured by methods used in the clinic. To measure the hepatic Triglyceride, isolated liver were cut into small chips.

[7] = HepG2 cells, GGPP (10 μM) + drug 10^−5 M
[8] = HepG2 cells, GGPP (10 μM) + drug 10^−6 M
[9] = HepG2 cells, GGPP (10 μM) + drug 10^−7 M
[10] = HepG2 cells, GGPP (10 μM) + drug 10^−8 M
[11] = HepG2 cells, GGPP (10 μM) + drug 10^−9 M
[12] = Simva 5 mg/kg, CTL 100 (Table 9)

With `Cn1c(=O)c2c(ncn2CCN2CCN(c3ccccc3Cl)CC2)n(C)c1=O` [KMUP-1, 7-[2-[4-(2-chlorophenyl)piperazinyl]ethyl]-1,3-dimethylxanthine] the HMGR ([1]; HFD mice, 1 mg/kg, CTL 100) was 43%, the HMGR ([1]; HFD mice, 2.5 mg/kg, CTL 100) was 150% and the HMGR ([1]; HFD mice, 5 mg/kg, CTL 100) was 140%. The “expression of PPARγ” value ([2]; HepG2, 10^−9-10^−5 M) was “increased”, the “increase of PPARγ” value ([2]; HepG2 cells) was 2-3 folds and the PPARγ expression ([2]; HepG2 cells) was 595. The PPARγ ([2]; HepG2 cells, FPP (10 μM) + drug 10^−5 M) was 138%, the PPARγ ([2]; HepG2 cells, FPP (10 μM) + drug 10^−6 M) was 140% and the PPARγ ([2]; HepG2 cells, FPP (10 μM) + drug 10^−7 M) was 142%. The PPARγ ([2]; HepG2 cells, FPP (10 μM) + drug 10^−8 M) was 84%, the PPARγ ([2]; HepG2 cells, FPP (10 μM) + drug 10^−9 M) was 72% and the PPARγ [2, 7] was 120%. It also gave a PPARγ [2, 8] of 106%, a PPARγ [2, 9] of 108% and a PPARγ [2, 10] of 90%. For the same compound, the PPARγ [2, 11] was 78%, the “ROCK II” value ([3]; 1 mg/kg) was 30% and the “ROCK II” value ([3]; 2.5 mg/kg) was 25%. The “ROCK II” value ([3]; 5 mg/kg) was 10%, the “HMGR (%)” value ([4]; 10^−5 M) was 270% and the “HMGR (%)” value ([4]; 10^−6 M) was 220%. The “HMGR (%)” value ([4]; 10^−7 M) was 210%, the “HMGR (%)” value ([4]; 10^−8 M) was 125% and the “HMGR (%)” value ([4]; 10^−9 M) was 120%. For the same compound, the “HMG CoA expression” value [4] was 62%, the “expression of ABCA1” value ([5]; HepG2, 10^−9-10^−5 M) was “increased” and the ABCA1 expression ([5]; HepG2 cells) was 200. For the same compound, the “expression of ABCA1 suppressed by FPP or GGPP” value ([5]; HepG2 cells, FPP or GGPP (10 μM) + 10^−9-10^−5 M) was “reversed”, the HDL cholesterol ([6]; 2.5 mg/kg p.o.) was 103.6 ± 4.2 mg/dL and the LDL cholesterol ([6]; 2.5 mg/kg p.o.) was 14.2 ± 1.4 mg/dL. The “TG in serum (Triacylglycerol)” value ([6]; 2.5 mg/kg p.o.) was 74.5 ± 5.1 mg/dL, the TG of liver ([6]; 2.5 mg/kg p.o.) was 28.4 ± 3.6 mg/dL and the “Tot. chol. (total cholesterol)” value ([6]; 2.5 mg/kg p.o.) was 133.0 ± 5.1 mg/dL. For the same compound, the HDL cholesterol ([6]; 5 mg/kg p.o.) was 118.3 ± 5.7 mg/dL, the LDL cholesterol ([6]; 5 mg/kg p.o.) was 14.2 ± 2.2 mg/dL and the “TG in serum (Triacylglycerol)” value ([6]; 5 mg/kg p.o.) was 72.7 ± 4.7 mg/dL. For the same compound, the TG of liver ([6]; 5 mg/kg p.o.) was 26.12 ± 3.1 mg/dL, the “Tot. chol. (total cholesterol)” value ([6]; 5 mg/kg p.o.) was 125.5 ± 9.8 mg/dL and the HDL chol. ([6]; Dose 2.5 mg/kg (Table 2)) was 103.6 ± 4.2 mg/dL. The LDL chol. ([6]; Dose 2.5 mg/kg (Table 2)) was 14.2 ± 1.4 mg/dL, the TG ([6]; Dose 2.5 mg/kg (Table 2)) was 74.5 ± 5.1 mg/dL and the Tot. chol. ([6]; Dose 2.5 mg/kg (Table 2)) was 133 ± 5.1 mg/dL. For the same compound, the HDL chol. ([6]; Dose 5 mg/kg (Table 2)) was 118.3 ± 5.7 mg/dL, the LDL chol. ([6]; Dose 5 mg/kg (Table 2)) was 14.2 ± 2.2 mg/dL and the TG ([6]; Dose 5 mg/kg (Table 2)) was 72.67 ± 4.7 mg/dL. For the same compound, the Tot. chol. ([6]; Dose 5 mg/kg (Table 2)) was 125.5 ± 9.8 mg/dL and the HFD-induced hypercholesterolemia ([6]; supplementation) was “significantly improved”.

`CCC(C)(C)C(=O)O[C@H]1C[C@@H](C)C=C2C=C[C@H](C)[C@H](CC[C@@H]3C[C@@H](O)CC(=O)O3)[C@H]21` [Simva, Simvastatin, reference compound] gave an HMGR [1, 12] of 100%, a PPARγ expression ([2]; HepG2 cells) of 350 and a PPARγ [2, 7] of 46%. It also gave a PPARγ [2, 8] of 46%, a PPARγ [2, 9] of 44% and a PPARγ [2, 10] of 40%. The PPARγ [2, 11] was 46%, the ROCKII [3, 12] was 43% and the “HMGR (%)” value ([4]; 10^−5 M) was 280%. The “HMGR (%)” value ([4]; 10^−8 M) was 152%, the “HMGR (%)” value ([4]; 10^−9 M) was 150% and the “HMG CoA expression” value [4] was 50%. For the same compound, the ABCA1 expression ([5]; HepG2 cells) was 146, the HDL chol. ([6]; Dose 5 mg/kg (Table 2)) was 108.4 ± 1.3 mg/dL and the LDL chol. ([6]; Dose 5 mg/kg (Table 2)) was 17.3 ± 1.4 mg/dL. For the same compound, the TG ([6]; Dose 5 mg/kg (Table 2)) was 81.2 ± 4.4 mg/dL and the Tot. chol. ([6]; Dose 5 mg/kg (Table 2)) was 129.7 ± 1.4 mg/dL.
